Measured values taken from PubChem BioAssay AID330 (DTP/NCI, 2004).
Several values for one entry are separate records, joined by “and”; a condition that tells them apart may be missing. Equal values may be shown once. Toxic doses and inconclusive results are not listed. Rule for the calls: active = survival T/C of 150% or more; inactive = T/C below 125% in these data. Bridge positions count the residues as written; N and C are the ends. Square brackets hold non-standard residues; d marks the D form. Peptide text beside a SMILES is read from it. * marks the point of attachment. Cbz = O=C(OCc1ccccc1)*; Ava = NCCCCC(=O)O

Test system: P388 leukemia ip, CD2F1 mice, survival T/C
Test: NCI In Vivo Anticancer Drug Screen. Data for tumor model P388 Leukemia (intraperitoneal) in CD2F1 (CDF1) mice
Settings: endpoint: median survival time, higher = longer survival
In short: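 Mice carrying the transplanted tumor received test compound or vehicle. Survival was recorded in each group, and the value is the treated-group measurement divided by that of the vehicle-treated control group.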

[1] = dose: 100.0 mg/kg/injection, schedule: Q01DX009 (ip), vehicle: saline
[2] = dose: 200.0 mg/kg/injection, schedule: Q01DX009 (ip), vehicle: saline
[3] = dose: 25.0 mg/kg/injection, schedule: Q04DX002 (ip), vehicle: saline with Tween-80
[4] = dose: 50.0 mg/kg/injection, schedule: Q04DX002 (ip), vehicle: saline with Tween-80
[5] = dose: 100.0 mg/kg/injection, schedule: Q04DX002 (ip), vehicle: saline with Tween-80
[6] = dose: 50.0 mg/kg/injection, schedule: Q01DX009 (ip), vehicle: saline
[7] = dose: 25.0 mg/kg/injection, schedule: Q01DX009 (ip), vehicle: saline with Tween-80
[8] = dose: 50.0 mg/kg/injection, schedule: Q01DX009 (ip), vehicle: saline with Tween-80
[9] = dose: 100.0 mg/kg/injection, schedule: Q01DX009 (ip), vehicle: saline with Tween-80
[10] = dose: 60.0 mg/kg/injection, schedule: Q01DX005 (ip), vehicle: saline with Tween-80
[11] = dose: 120.0 mg/kg/injection, schedule: Q01DX005 (ip), vehicle: saline with Tween-80

Measured: T/C

COCCCNS(=O)(=O)c1ncnc2nc[nH]c12
inactive: [1] 104 % of control | dose: 100.0 mg/kg/injection, schedule: Q04DX003 (ip), vehicle: saline with Tween-80 108 % of control | [2] 100 % of control | dose: 400.0 mg/kg/injection, schedule: Q01DX009 (ip), vehicle: saline 86 % of control | dose: 400.0 mg/kg/injection, schedule: Q04DX003 (ip), vehicle: saline with Tween-80 108 % of control

CCCCOc1ccc2nccc(N/N=C/c3ccc(OC)c4ccccc34)c2c1
inactive: dose: 12.5 mg/kg/injection, schedule: Q01DX005 (ip), vehicle: Klucel (hydroxypropylcellulose) (HPC) 88 % of control | dose: 25.0 mg/kg/injection, schedule: Q01DX005 (ip), vehicle: Klucel (hydroxypropylcellulose) (HPC) 88 % of control | dose: 50.0 mg/kg/injection, schedule: Q01DX005 (ip), vehicle: Klucel (hydroxypropylcellulose) (HPC) 92 % of control and 94 % of control

O=C1C(C(=Nc2ccc3ccccc3c2)c2ccccc2)=C(O)c2ccccc21
inactive: [3] 100 % of control | [4] 102 % of control | [5] 89 % of control

Cc1cccc(C)c1N=Cc1ccc([N+](=O)[O-])cc1
inactive: [6] 100 % of control | [1] 99 % of control | [2] 102 % of control

OCCN1CCN(CCCOC2=Nc3ccccc3O/C2=C/c2ccccc2)CC1
inactive: dose: 25.0 mg/kg/injection, schedule: Q04DX003 (ip), vehicle: saline 100 % of control | dose: 50.0 mg/kg/injection, schedule: Q04DX003 (ip), vehicle: saline 100 % of control | dose: 100.0 mg/kg/injection, schedule: Q04DX003 (ip), vehicle: saline 98 % of control and 101 % of control

C[SiH](C)c1ccc(Cl)cc1
inactive: [6] 99 % of control | [1] 102 % of control | [2] 100 % of control

O=c1[nH]c(O)c(N=Nc2ccc([N+](=O)[O-])cc2[N+](=O)[O-])c(=O)[nH]1
inactive: [7] 113 % of control | [8] 102 % of control (2×) and 114 % of control | [9] 103 % of control and 112 % of control | dose: 200.0 mg/kg/injection, schedule: Q01DX009 (ip), vehicle: saline with Tween-80 102 % of control and 111 % of control

COc1ccc(CCN)cc1
inactive: [6] 101 % of control and 106 % of control

Nc1nc(-c2cc(-c3cccs3)nc(N)n2)cc(-c2cccs2)n1
inactive: dose: 60.0 mg/kg/injection, schedule: Q01DX005 (ip), vehicle: saline 97 % of control | dose: 120.0 mg/kg/injection, schedule: Q01DX005 (ip), vehicle: saline 100 % of control

O=C1C2=C(Nc3cc(Cl)ccc3N2)OC1c1c[nH]c2ccc(COc3ccccc3)cc12 (stereo unspecified)
inactive: [10] 93 % of control | [11] 93 % of control | dose: 240.0 mg/kg/injection, schedule: Q01DX005 (ip), vehicle: saline with Tween-80 89 % of control

C=C(CC(=O)O)C(=O)O (tested in a mixture with another compound)
inactive: dose: 12.5 mg/kg/injection, schedule: Q01DX009 (ip), vehicle: saline 100 % of control | dose: 25.0 mg/kg/injection, schedule: Q01DX009 (ip), vehicle: saline 100 % of control | [6] 100 % of control

CNC(=S)NNc1nnc(NNC(=S)NC)c2ccccc12
inactive: [6] 94 % of control | [1] 97 % of control | [2] 102 % of control

OCC1OC(n2ncc3ccccc32)C(O)C1O (stereo unspecified)
inactive: dose: 6.25 mg/kg/injection, schedule: Q01DX009 (ip), vehicle: saline with Tween-80 97 % of control | dose: 12.5 mg/kg/injection, schedule: Q01DX009 (ip), vehicle: saline with Tween-80 92 % of control | [7] 106 % of control | dose: 32.0 mg/kg/injection, schedule: Q01DX002 (ip), vehicle: saline with Tween-80 114 % of control and 90 % of control | [8] 106 % of control | dose: 64.0 mg/kg/injection, schedule: Q01DX002 (ip), vehicle: saline with Tween-80 106 % of control | [9] 100 % of control | dose: 128.0 mg/kg/injection, schedule: Q01DX002 (ip), vehicle: saline with Tween-80 112 % of control and 116 % of control

Cc1ccccc1C[P+](c1ccccc1)(c1ccccc1)c1ccccc1
inactive: dose: 0.62 mg/kg/injection, schedule: Q01DX009 (ip), vehicle: saline with Tween-80 95 % of control | dose: 1.25 mg/kg/injection, schedule: Q01DX009 (ip), vehicle: saline with Tween-80 100 % of control | dose: 2.5 mg/kg/injection, schedule: Q01DX009 (ip), vehicle: saline with Tween-80 104 % of control | dose: 5.0 mg/kg/injection, schedule: Q01DX009 (ip), vehicle: saline with Tween-80 117 % of control | dose: 5.0 mg/kg/injection, schedule: Q04DX003 (ip), vehicle: saline with Tween-80 100 % of control | dose: 10.0 mg/kg/injection, schedule: Q01DX009 (ip), vehicle: saline with Tween-80 95 % of control | dose: 10.0 mg/kg/injection, schedule: Q04DX003 (ip), vehicle: saline with Tween-80 87 % of control

O=S(=O)(Cl)C(F)(F)C(F)(F)C(F)(F)C(F)(F)F
inactive: [6] 102 % of control | [1] 103 % of control | [2] 88 % of control

CC1(C)OC1(C(=O)C=[N+]=[N-])c1ccccc1 (stereo unspecified)
inactive: dose: 25.0 mg/kg/injection, schedule: Q01DX005 (ip), vehicle: saline with Tween-80 96 % of control | dose: 50.0 mg/kg/injection, schedule: Q01DX005 (ip), vehicle: saline with Tween-80 99 % of control | dose: 100.0 mg/kg/injection, schedule: Q01DX005 (ip), vehicle: saline with Tween-80 96 % of control | dose: 200.0 mg/kg/injection, schedule: Q01DX005 (ip), vehicle: saline with Tween-80 103 % of control

CS1=C2C(=O)CCCC2=Nc2ccccc21 (stereo unspecified)
inactive: dose: 50.0 mg/kg/injection, schedule: Q01DX005 (ip), vehicle: saline 97 % of control | dose: 100.0 mg/kg/injection, schedule: Q01DX005 (ip), vehicle: saline 100 % of control

CC(O)c1cc(C(C)O)cc(C(C)O)c1 (stereo unspecified)
inactive: [6] 95 % of control | [1] 101 % of control | [2] 99 % of control

C1C[S][Hg][S]CCO1
inactive: dose: 6.25 mg/kg/injection, schedule: Q01DX009 (ip), vehicle: suspension in saline 105 % of control | dose: 12.5 mg/kg/injection, schedule: Q01DX009 (ip), vehicle: suspension in saline 102 % of control

COCCOCCOCCOCCOCCOCCOCCOC(=O)CCn1cc(F)c(=O)[nH]c1=O
inactive: dose: 62.5 mg/kg/injection, schedule: Q04DX002 (ip), vehicle: saline 99 % of control | dose: 125.0 mg/kg/injection, schedule: Q04DX002 (ip), vehicle: saline 108 % of control | dose: 250.0 mg/kg/injection, schedule: Q04DX002 (ip), vehicle: saline 101 % of control | dose: 500.0 mg/kg/injection, schedule: Q04DX002 (ip), vehicle: saline 109 % of control

CS(=O)(=O)OCCC[Se]Cc1ccccc1C[Se]CCCOS(C)(=O)=O
inactive: [10] 93 % of control | [11] 91 % of control

O=c1[nH]c(C(Br)(Br)Br)nc2ccccc12
inactive: dose: 12.5 mg/kg/injection, schedule: Q01DX009 (ip), vehicle: Klucel (hydroxypropylcellulose) (HPC) 99 % of control | dose: 25.0 mg/kg/injection, schedule: Q01DX009 (ip), vehicle: Klucel (hydroxypropylcellulose) (HPC) 112 % of control | dose: 50.0 mg/kg/injection, schedule: Q01DX009 (ip), vehicle: Klucel (hydroxypropylcellulose) (HPC) 113 % of control | dose: 100.0 mg/kg/injection, schedule: Q01DX009 (ip), vehicle: Klucel (hydroxypropylcellulose) (HPC) 117 % of control

O=C1c2ccccc2C(=O)c2c(NCC3CO3)ccc(NCC3CO3)c21 (stereo unspecified)
inactive: dose: 0.75 mg/kg/injection, schedule: Q01DX005 (ip), vehicle: Klucel (hydroxypropylcellulose) (HPC) 112 % of control | dose: 1.5 mg/kg/injection, schedule: Q01DX005 (ip), vehicle: Klucel (hydroxypropylcellulose) (HPC) 112 % of control | dose: 3.0 mg/kg/injection, schedule: Q01DX005 (ip), vehicle: Klucel (hydroxypropylcellulose) (HPC) 114 % of control | dose: 6.0 mg/kg/injection, schedule: Q01DX005 (ip), vehicle: Klucel (hydroxypropylcellulose) (HPC) 114 % of control

CC1NC(=O)C(NC(=O)OCc2ccccc2)COC(=O)C(C(C)C)NC(=O)CCCCNC1=O (stereo unspecified) (Cbz-SA[Ava]V; ester 1-C; configuration not given here)
inactive: [5] 100 % of control | dose: 200.0 mg/kg/injection, schedule: Q04DX002 (ip), vehicle: saline with Tween-80 104 % of control | dose: 400.0 mg/kg/injection, schedule: Q04DX002 (ip), vehicle: saline with Tween-80 104 % of control

[Cl][Pt+2][Cl].[NH-]c1ccc(S(=O)(=O)O)cc1[NH-]
inactive: dose: 6.25 mg/kg/injection, schedule: Q04DX002 (ip), vehicle: saline with Tween-80 102 % of control | dose: 12.5 mg/kg/injection, schedule: Q04DX002 (ip), vehicle: saline with Tween-80 111 % of control | [3] 119 % of control | [4] 124 % of control
